Measured values published in patent publication US8697840B2, “Peptide inhibition of lung epithelial apoptosis and pulmonary fibrosis” (Board of Regents, The University of Texas System, priority 2008, dated 2014).
Entries after “also recorded” stand apart in the source; their conditions may differ.

Legend:
Type in all cases: cell-based, human
p53 = assay: Western blot of bleo-treated Beas2B cells: p53; details: 40 μg/ml bleo, 28 h
Protocol: (§1) FIG. 4 depicts a set of Western blots showing the show the effect of bleo on uPA, uPAR, PAI-1 and p53 expression in LEC in vitro.
(§2) Beas2B cells were treated for 28 h with PBS or 40 μg/ml of bleo in the presence or absence of uPA or its ATF (20 nM), anti-β1-integrin monoclonal antibody (B1), (which activates β1-integrin by clustering), mouse IgG (mIgG), uPA+B1, uPA+mIgG, PP-1 (10 nM), or scrambled control peptide CP-1 (10 nM) at 37° C. In the case of uPA and PAI-1, the full length uPA was substituted with ATF, because uPA-mediated autoinduction or induction of PAI-1 occurs via the interaction of the ATF with uPAR (3-4). […] The membrane proteins were subjected to Western blotting using anti-uPAR antibody.

PAI-1 = assay: Western blot of bleo-treated Beas2B cells: PAI-1; details: 40 μg/ml bleo, 28 h
Protocol: as §1, §2

[1] = tested on: primary small airway epithelial (SAE) cells; assay: SAE cell proliferation, DNA synthesis by [3H]-thymidine uptake; details: uPA between 5 and 20 nM; bleomycin 40 μg/ml as positive control
Protocol: FIGS. 2A-2B is a set of graphs showing dose-dependent induction of primary small airway epithelial (SAE) cell apoptosis and proliferation by uPA. FIG. 2A, SAE cells were treated for 48 h with 0-20 nM uPA at 37° C. Apoptotic cells were analyzed by flow cytometry using anti-annexin-V antibody and propidium iodide (PI). Bleo (40 μg/ml) was used as positive control (90). FIG. 2B, The cells were next treated with uPA as described in FIG. 1A and DNA synthesis was determined by [^3H]-thymidine uptake as described (5).

uPAR = assay: Western blot of bleo-treated Beas2B cells: uPAR; details: 40 μg/ml bleo, 28 h
Protocol: as §1, §2

uPA = assay: Western blot of bleo-treated Beas2B cells: uPA; details: 40 μg/ml bleo, 28 h
Protocol: as §1, §2

Beas2B cells = assay: Bleo-induced apoptosis of Beas2B cells, flow cytometry (anti-Annexin-V antibody and propidium iodide); details: 28 h, 40 μg/ml bleo, uPA 20 nM, anti-β1-integrin antibody 1 μg/ml, PP-1 10 nM
Protocol: FIG. 6 is a graph showing apoptosis (% apoptotic cells) after treatment of cells with a β1-integrin activator (anti-β1-integrin antibody), uPA, a combination of the antibody and uPA, or PP-1, along with appropriate controls. Beas2B cells were treated for 28 h with PBS or 40 μg/ml of Bleo in the presence or absence of uPA (20 nM) or PBS as control, with anti-β1-integrin antibody (1 μg/ml, B1), or mouse IgG (mIgG) as control, a combination of the antibody (or control antibody with uPA, and with PP-1 peptide (10 nM) or the CP-1 control peptide (10 nM) as described above at 37° C. Cells were harvested after trypsinization and LEC apoptosis was determined by flow cytometry after exposing the cells to anti-Annexin-V antibody and propidium iodide (as described for FIG. 2A).
Expression of p53 and PAI-1 shown in Example I were correlated with LEC apoptosis induced by bleo (FIG. 6). […] Beas2B cells were treated for 28 h with PBS or 40 μg/ml of bleo (Bleo) with uPA (20 nM), and/or anti-β1-integrin antibody (1 μg/ml, B1), control mouse IgG (mIgG) PP-1 peptide (10 nM) or CP-1 control peptide (10 nM) as described above at 37° C. Cells were trypsinized and LEC apoptosis was determined by flow cytometry after exposing the cells to anti-Annexin-V antibody and propidium iodide (as described for FIG. 2A).

## Bleomycin
p53
  p53 expression: induced
PAI-1
  PAI-1 expression: induced
[1]
  cell proliferation of SAE cells: inhibited cell proliferation
uPAR
  uPAR expression: suppressing
uPA
  uPA expression: suppressing

## DGIWKASFTTFTVTKYWFYR [PP-1, residues 82-101 of human Cav-1, the caveolin-1 scaffolding domain]
Beas2B cells
  protection of LECs from bleo-induced apoptosis: protected LECs from bleo-induced apoptosis; also recorded: more potent in protecting LECs than was uPA or anti-β1-integrin antibody
